Assay results taken from paper PMC9687805 (Biomolecules, 2022).
Where “and” joins values, the source holds several entries; their conditions need not be identical. Identical values can stand only once. Like-named read-outs stand apart in the source and are kept apart here.

What was measured:
[1] = biological target: T1, Human erythrocyte AChE (Homo sapiens, UniProt P22303); experiment: biochemical; conditions: for IC50: human erythrocyte AChE, 5 min incubation, 25 °C, pH 7.5, read-out: Inhibitory activity against AChE, IC50; for inhibition at 20 µM: read-out: Inhibitory activity against AChE, % inhibition at 20 μM
T1 construct: purchased Sigma-Aldrich; host or cells: human erythrocytes
Experimental: (§1) The assay solution consisted of 0.1 M K/Na phosphate buffer pH 7.5, 25 °C, 0.33 mM DTNB, 0.02 unit/mL AChE or BChE, and 1 mM substrate (ATCh or BTCh, respectively). Reagent blanks consisted of reaction mixtures without substrates.
(§2) Each experiment was performed in triplicate.

[2] = biological target: T2, equine serum BChE (Equus caballus, UniProt P81908); experiment: biochemical; conditions: mean ± SEM, n = 3; for IC50: equine serum BChE, 5 min incubation, 25 °C, pH 7.5, read-out: Inhibitory activity against BChE, IC50; for inhibition at 20 µM: read-out: Inhibitory activity against BChE, % inhibition at 20 μM, compound 20 μM, n.a. = not active
T2 construct: purchased Sigma-Aldrich; host or cells: equine serum
Experimental: as §1, §2

[3] = biological target: T3, EeAChE PAS (Electrophorus electricus, UniProt O42275); experiment: biochemical; assay type: binding; conditions: 0.25 h; compound 20 μM, EeAChE 7 μM, propidium iodide 8 μM; n.a. = not active; read-out: % Displacement of Propidium from the EeAChE PAS at 20 μM
T3 construct: purchased Sigma-Aldrich type VI-S; host or cells: electric eel
Experimental: Electrophorus electricus (EeAChE) (electric eel, type VI-S, lyophilized powder, Sigma-Aldrich, St. Louis, MO, USA) was used owing to its high degree of purification, high activity, and lower cost than human AChE (hAChE). […] To determine the degree of displacement (% displacement) of propidium from the PAS of AChE, EeAChE (final concentration, 7 μM) was incubated with the test compound at a concentration of 20 μM in 1 mM Tris-HCl buffer pH 8.0, 25 °C, for 15 min. Then, propidium iodide solution (final concentration, 8 μM) was added, the samples were incubated for 15 min, and the fluorescence spectrum (530 nm (excitation) and 600 nm (emission)) was taken. […] The blank contained propidium iodide of the same concentration in 1 mM Tris-HCl buffer, pH 8.0 at 25 °C. The measurements were carried out in triplicate on a FLUOStar Optima microplate reader (LabTech, Ortenberg, Germany), and the results were calculated by the following formula:% Displacement = 100 − (IFAChE + Propidium + inhibitor / IFAChE + Propidium) × 100 (1) where IFAChE + Propidium is the fluorescence intensity of the propidium associated with AChE in the absence of the test compound (taken as 100%), and IFAChE + Propidium + inhibitor is the fluorescence intensity of the propidium associated with AChE in the presence of the test compound.

[4] = ABTS radical cation scavenging activity assay; parameters: key to ABTS•+-scavenging activity, TEAC: ratio of slopes, tested compound vs Trolox (Trolox = 1); conditions: n=3, 1 h, 30 °C; for ABTS•+-scavenging activity, TEAC: Trolox equivalent antioxidant capacity, mean ± SEM; for IC50: concentration for 50% reduction of ABTS radical cation
Experimental: Radical scavenging activity of the compounds was evaluated by the ABTS radical cation (ABTS^•+) scavenging assay showing the ability of the compounds to decolorize the ABTS^•+ solution [86] with some modifications. Trolox was used as the antioxidant standard; ascorbic acid was used as the comparison compound. All tested compounds and standards were dissolved in DMSO.
The solution of ABTS^•+ was produced by mixing 7 mM ABTS aqueous solution with 2.45 mM potassium persulfate aqueous solution in equal quantities and allowing them to react for 12–16 h at room temperature in the dark. Radical scavenging capacity of the compounds was analyzed by mixing 10 µL of compound with 240 µL of ABTS^•+ working solution in ethanol (100 µM final concentration), and after 1 h of incubation at 30 °C the decrease in absorbance was measured spectrophotometrically at 734 nm using a Bio-Rad xMark microplate UV/VIS spectrophotometer (Bio-Rad, Hercules, CA, USA). The compounds were tested in the concentration range 5 × 10^−7–1 × 10^−4 M. Ethanol blanks were run in each assay. Values were obtained from five replicates of each sample and three independent experiments.
Antioxidant activity was reported as Trolox equivalent antioxidant capacity (TEAC values), consisting of the ratio between the slopes obtained from the linear correlation for concentrations of the tested compounds and Trolox with absorbance of ABTS radical. […] The calculations were carried out using Origin 6.1 for Windows (OriginLab, Northampton, MA, USA). Results are presented as mean ± SEM calculated using GraphPad Prism version 6.05 for Windows, GraphPad Software (San Diego, CA, USA).

[5] = Ferric reducing antioxidant power (FRAP) assay; conditions: Trolox equivalents; n=3, 1 h, 37 °C; mean ± SEM
Experimental: The FRAP (Ferric Reducing Antioxidant Power) assay measures the ability of antioxidants to reduce the ferric 2,4,6-tripyridyl-s-triazine complex [Fe(TPTZ)2]^3+ to the intensely blue-colored ferrous complex [Fe(TPTZ)2]^2+ with an absorption maximum at λ = 593 nm. The reducing ability of a compound is an indicator of its potential antioxidant activity.
The ferric reducing ability of the compounds was determined by a previously described method as a microplate-adapted version described in [42]. 2,4,6-tris(pyridin-2-yl)-1,3,5-triazine (TPTZ), FeCl3·6H2O, Trolox, ascorbic acid and DMSO were obtained from Sigma-Aldrich Chemical Co (St. Louis, MO, USA). The FRAP reagent was prepared by mixing acetate buffer (0.3 M, pH 3.6), TPTZ (10 mM in 40 mM HCl) and FeCl3·6H2O (20 mM in distilled water) in a ratio of 10:1:1 immediately before use. Compounds were dissolved in DMSO and tested in the concentration range of 1×10^−6–1×10^−4 M. The solvent content in the reaction mixture was 4% (v/v). The test compounds (10 µL) were added to the FRAP reagent solution (240 µL) and mixed thoroughly. The reaction was carried out at 37 °C in the dark, the incubation time was 1 h. The absorbance at 600 nm was monitored spectrophotometrically by a FLUOStar OPTIMA microplate reader (BMG Labtech, Germany) at 37 °C. Trolox was used as a standard antioxidant, ascorbic acid as a reference compound. Values were obtained from four replicates of each sample and three independent experiments.
The ferric reducing ability of compounds was expressed as TE units (antioxidant activity in Trolox equivalent) with the values calculated as the ratio of the concentrations of Trolox and the test compound resulting in the same effect.

[6] = tested on: porcine liver CES; experiment: CES inhibition, 4-nitrophenyl acetate hydrolysis; conditions: compound 20 μM; mean ± SEM, n = 3; n.a. = not active
Experimental: Final enzyme and substrate (4-nitrophenyl acetate) concentrations were 0.02 unit/mL and 1 mM, respectively. Assays were carried out with a blank containing all constituents except porcine CES to assess non-enzymatic hydrolysis. Measurements were performed with a FLUOStar Optima microplate reader (BMG Labtech, Ortenberg, Germany). Compounds were dissolved in DMSO; the incubation mixture contained 2% (v/v) solvent. The primary evaluation of the inhibitory activity of the compounds was performed by determining the degree of the enzyme inhibition at a compound concentration of 20 µM. For this, a sample of the corresponding enzyme was incubated with the test compound for 5 min; then the enzyme residual activity was determined. Each experiment was performed in triplicate. […] Substrate was then added and residual enzyme activity relative to an inhibitor-free control was measured using a FLUOStar Optima microplate reader.

[7] = Metal-chelating properties by UV-Vis spectrometry in acetonitrile; assay type: physicochemical; conditions: compound 40 µM, metal 40 µM, 25 °C, red shift of absorbance
Experimental: The complexing studies were made in acetonitrile at 25 °C using a UV–vis spectrophotometer Shimadzu UV-2600 (Shimadzu Corporation, Kyoto, Japan) with wavelength ranging from 190 to 600 nm. Solutions (200 µM in acetonitrile) of the following metals compounds were prepared in volumetric flasks: FeCl2·4H2O (99%, Acros Organics by Thermo Fisher Scientific (Kandel, Germany)), CuCl2 (98%, Alfa Aesar by Thermo Fisher Scientific (Kandel, Germany)), or Zn(NO3)2·6H2O (98%, Alfa Aesar by Thermo Fisher Scientific (Kandel, Germany). Solutions of the test compounds were also prepared in acetonitrile at 400 µM concentrations. To a mixture of 0.5 mL test compound solution (40 μM final concentration) and 3.5 mL acetonitrile, 1 mL of the metal solution (CuCl2, FeCl2·4H2O, or Zn(NO3)2·6H2O; 40 µM final concentration) was added. The solution was incubated at 25 °C for 30 min and then the absorption spectra were recorded at 25 °C in a 1 cm quartz cell. The control was prepared by mixing 0.5 mL tested compound solution and 4.5 mL acetonitrile.

[8] = compound 20 μM, mean ± SEM, n = 3, n.a. = not active

T1 sequence (P22303 32-617 isoform P22303-2 limits assumed): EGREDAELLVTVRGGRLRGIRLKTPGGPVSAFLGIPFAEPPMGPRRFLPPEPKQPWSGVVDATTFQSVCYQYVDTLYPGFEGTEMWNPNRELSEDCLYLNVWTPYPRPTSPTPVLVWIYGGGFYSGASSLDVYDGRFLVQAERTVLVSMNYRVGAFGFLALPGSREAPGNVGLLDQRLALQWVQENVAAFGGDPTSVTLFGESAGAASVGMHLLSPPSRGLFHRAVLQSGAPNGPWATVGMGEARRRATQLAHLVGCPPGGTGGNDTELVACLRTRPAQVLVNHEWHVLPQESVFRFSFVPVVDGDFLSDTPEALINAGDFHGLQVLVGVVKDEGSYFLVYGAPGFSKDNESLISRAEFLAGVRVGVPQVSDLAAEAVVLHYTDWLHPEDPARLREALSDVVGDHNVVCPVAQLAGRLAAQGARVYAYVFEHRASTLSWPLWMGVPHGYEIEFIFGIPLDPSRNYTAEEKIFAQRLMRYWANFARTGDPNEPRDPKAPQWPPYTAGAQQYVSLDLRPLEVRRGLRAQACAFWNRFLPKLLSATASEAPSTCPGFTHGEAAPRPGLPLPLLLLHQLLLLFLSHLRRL
T3 sequence (O42275 24-633): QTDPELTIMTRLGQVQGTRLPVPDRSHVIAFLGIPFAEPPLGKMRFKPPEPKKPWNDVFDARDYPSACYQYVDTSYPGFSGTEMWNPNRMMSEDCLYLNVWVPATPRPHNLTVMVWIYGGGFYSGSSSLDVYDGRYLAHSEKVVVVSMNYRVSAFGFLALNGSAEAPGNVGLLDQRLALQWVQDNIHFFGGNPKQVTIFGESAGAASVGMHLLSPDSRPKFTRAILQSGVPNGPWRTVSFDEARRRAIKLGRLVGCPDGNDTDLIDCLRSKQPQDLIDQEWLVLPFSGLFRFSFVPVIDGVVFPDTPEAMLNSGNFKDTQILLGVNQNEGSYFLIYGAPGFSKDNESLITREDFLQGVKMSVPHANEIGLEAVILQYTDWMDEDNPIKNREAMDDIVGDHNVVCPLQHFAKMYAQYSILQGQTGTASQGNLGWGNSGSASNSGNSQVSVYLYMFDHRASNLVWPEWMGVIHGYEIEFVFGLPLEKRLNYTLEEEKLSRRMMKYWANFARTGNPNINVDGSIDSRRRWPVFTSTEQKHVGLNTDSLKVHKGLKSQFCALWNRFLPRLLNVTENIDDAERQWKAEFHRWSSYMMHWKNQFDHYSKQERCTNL
T2 sequence (P81908 whole entry): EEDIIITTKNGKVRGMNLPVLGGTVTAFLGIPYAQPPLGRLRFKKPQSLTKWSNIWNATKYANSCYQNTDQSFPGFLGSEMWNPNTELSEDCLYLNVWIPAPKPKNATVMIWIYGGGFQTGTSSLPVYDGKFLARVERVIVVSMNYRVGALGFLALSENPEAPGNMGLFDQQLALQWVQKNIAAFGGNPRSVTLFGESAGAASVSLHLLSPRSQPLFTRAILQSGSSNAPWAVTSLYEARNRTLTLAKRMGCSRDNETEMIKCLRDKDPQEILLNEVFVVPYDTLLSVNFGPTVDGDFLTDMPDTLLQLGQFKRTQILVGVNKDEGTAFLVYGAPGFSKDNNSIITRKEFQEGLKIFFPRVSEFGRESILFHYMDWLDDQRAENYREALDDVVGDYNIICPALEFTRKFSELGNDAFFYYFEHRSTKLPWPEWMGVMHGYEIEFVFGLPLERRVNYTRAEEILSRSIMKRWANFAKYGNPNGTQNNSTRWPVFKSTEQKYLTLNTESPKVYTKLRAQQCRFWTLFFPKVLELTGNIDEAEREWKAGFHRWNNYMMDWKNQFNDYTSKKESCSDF

Compound	IC50 ([1]; mean ± SEM, n = 3)	IC50 [2]	inhibition at 20 µM [3]	ABTS•+-scavenging activity, TEAC [4]	IC50 [4]	FRAP (Fe3+-reducing activity), TE [5]	Inhibitory activity against CES, % inhibition at 20 μM [6]	Metal-chelating ability for Cu2+, Fe2+ and Zn2+ [7]	inhibition at 20 µM [1, 8]	inhibition at 20 µM [2]	inhibition at 20 µM [1]
C/C(NCCCCCCNc1c2c(nc3ccccc13)CCCC2)=C(/N=N/c1ccc(C)cc1)C(=O)C(F)(F)F [8b]	280 nM and 276 nM	125 ± 6 nM	14.4 ± 1.3%	1.00 ± 0.04	17900 ± 600 nM	0.11 ± 0.03	19.9 ± 2.9%	–	–	–	–
C/C(NCCCCCCNc1c2c(nc3ccccc13)CCCC2)=C(/N=N/c1ccc(C)cc1)C(=O)c1ccccc1 [7b]	380 ± 3 nM	47 ± 3.8 nM	15.5 ± 1.3%	0.91 ± 0.03	21800 ± 1600 nM	0.51 ± 0.06	33.2 ± 1.7%	–	–	–	–
CC(=O)C(/N=N/c1ccc(C)cc1)=C(\C)NCCCCNc1c2c(nc3ccccc13)CCCC2 [6a]	1390 ± 40 nM	139 ± 17 nM	15.6 ± 1.2%	1.00 ± 0.03	19500 ± 1100 nM	0.37 ± 0.06	23.3 ± 0.4%	metal-chelating ability	–	–	–
C/C(NCCCCCCCCNc1c2c(nc3ccccc13)CCCC2)=C(/N=N/c1ccc(C)cc1)C(=O)C(F)(F)F [8c]	240 nM and 241 nM	98.5 ± 1.3 nM	16.2 ± 1.4%	0.95 ± 0.03	19400 ± 1300 nM	0.12 ± 0.01	12.2 ± 1.7%	–	–	–	–
Cc1c(C)c2c(c(C)c1O)CCC(C)(C(=O)O)O2 (centres unmarked) [Trolox, 6-hydroxy-2,5,7,8-tetramethylchroman-2-carboxylic acid, reference compound]	–	–	–	1.0	19700 ± 800 nM	1.0	–	–	–	–	–
CCCCCCN/C(C)=C(\N=Nc1ccc(C)cc1)C(=O)c1ccccc1 [2b, (3Z)-3-(Hexylamino)-2-[(4-methylphenyl)diazenyl]-1-phenylbut-2-en-1-one]	–	–	–	0.98 ± 0.03	18900 ± 1200 nM	0.52 ± 0.02	–	–	12.5 ± 0.6%	25 ± 2%	–
CC(=O)C(/N=N/c1ccc(C)cc1)=C(\C)NCCCCCCCCNc1c2c(nc3ccccc13)CCCC2 [6c]	270 nM and 272 nM	54 nM and 54.3 nM	17.8 ± 1.4%	0.80 ± 0.03	27500 ± 1600 nM	0.49 ± 0.05	30.1 ± 1.2%	–	–	–	–
CCCCCCN/C(C)=C(\N=N\c1ccc(C)cc1)C(=O)C(F)(F)F [2c, (3Z)-4-(Hexylamino)-3-[(E)-(4-methylphenyl)diazenyl]-1,1,1-trifluoropent-3-en-2-one]	–	–	–	1.00 ± 0.04	19900 ± 1400 nM	not active	–	–	14.7 ± 3.2%	35.3 ± 2.7%	–
O=C1O[C@H]([C@@H](O)CO)C(O)=C1O [Ascorbic acid, ascorbic acid, reference compound]	–	–	–	0.96 ± 0.02	22600 ± 1300 nM	1.23 ± 0.11	–	–	–	–	–
C/C(NCCCCNc1c2c(nc3ccccc13)CCCC2)=C(/N=N/c1ccc(C)cc1)C(=O)c1ccccc1 [7a]	889 ± 7 nM	36 nM and 35.9 nM	11.9 ± 0.8%	0.90 ± 0.04	22300 ± 1900 nM	0.43 ± 0.04	31.2 ± 2.9%	metal-chelating ability	–	–	–
C/C(NCCCCNc1c2c(nc3ccccc13)CCCC2)=C(/N=N/c1ccc(C)cc1)C(=O)C(F)(F)F [8a]	1690 ± 50 nM	246 ± 16 nM	13.7 ± 1.2%	1.13 ± 0.05	17700 ± 1300 nM	0.06 ± 0.01	28.6 ± 4.0%	metal-chelating ability	–	–	–
C/C(NCCCCCCCCNc1c2c(nc3ccccc13)CCCC2)=C(/N=N/c1ccc(C)cc1)C(=O)c1ccccc1 [7c]	250 nM and 249 nM	74.5 ± 6 nM	14.1 ± 1.1%	0.92 ± 0.03	21800 ± 1600 nM	0.58 ± 0.03	23.4 ± 2.2%	–	–	–	–
CCCCCCN/C(C)=C(\N=N\c1ccc(C)cc1)C(C)=O [2a, (3Z)-4-(Hexylamino)-3-[(E)-(4-methylphenyl)diazenyl]pent-3-en-2-one]	–	18100 ± 800 nM	–	0.94 ± 0.03	20300 ± 1600 nM	0.57 ± 0.02	–	–	–	–	22.9 ± 1.2%
